From patent publication US9630978B2, “Polycyclic-carbamoylpyridone compounds and their pharmaceutical use” (Gilead Sciences, Inc., priority 2015, dated 2017)
pEC50: −log10 of the molar value. Like-named read-outs stand apart in the source and are kept apart here.

Key:
Format in all cases: cell-based
[1] = Cytotoxicity (CC50) in MT4 cells within the antiviral assay; details: human, MT4 cells (mock-infected); MT4 cells, 5 days incubation, CellTiter-Glo; average over assays
Description: (§1) For the antiviral assay utilizing MT4 cells, 0.4 μL of 189X test concentration of 3-fold serially diluted compound in DMSO was added to 40 μl of cell growth medium (RPMI 1640, 10% FBS, 1% penicillin/streptomycin, 1% L-Glutamine, 1% HEPES) in each well of 384-well assay plates (10 concentrations) in quadruplicate.
(§2) 1 mL aliquots of 2×10^6 MT4 cells are pre-infected for 1 and 3 hours respectively at 37° C. with 25 μL (MT4) or of either cell growth medium (mock-infected) or a fresh 1:250 dilution of an HIV-IIIb concentrated ABI stock (0.004 m.o.i. for MT4 cells). Infected and uninfected cells are diluted in cell growth medium and 35 μL of 2000 (for MT4) cells is added to each well of the assay plates.
(§3) Assay plates were then incubated in a 37° C. incubator. After 5 days of incubation, 25 μL of 2× concentrated CellTiter-Glo™ Reagent (catalog # G7573, Promega Biosciences, Inc., Madison, Wis.) was added to each well of the assay plate. Cell lysis was carried out by incubating at room temperature for 2-3 minutes, and then chemiluminescence was read using the Envision reader (PerkinElmer).

HIV-IIIb = experiment: Antiviral assay in MT4 cells; details: MT4 cells infected with HIV-IIIb (0.004 m.o.i.), 5 days incubation, CellTiter-Glo, average over assays
Description: as §1, §2, §3

MT4 cells = experiment: Cytotoxicity (CC50) in MT4 cells within the antiviral assay
Description: as §1, §2, §3

[2] = Human immunodeficiency virus 1, IIIB, MT4, 120 h
[3] = MT4 cells, 5 days incubation, CellTiter-Glo, average over assays, read-out: CC50

SMILES | CC50 at 5 days [1] [nM] | pEC50 (HIV-IIIb; [2]) | CC50 (MT4 cells; [3]) [nM] | CC50 (MT4 cells) [nM] | pEC50 (HIV-IIIb)
O=C(NCc1ccc(F)c(Cl)c1F)c1cn2c(c(O)c1=O)C(=O)N1CCO[C@]13CCCC[C@H]23 (racemic) [Compound 96] | 1370 | 8.35 | – | – | –
O=C(NCc1ccc(F)c(Cl)c1F)c1cn2c(c(O)c1=O)C(=O)N1CCS[C@]13COCC[C@H]23 (racemic) [Compound 103] | – | 8.92 | 10800 | – | –
C[C@@H]1CN2C(=O)c3c(O)c(=O)c(C(=O)NCc4ccc(F)c(Cl)c4F)cn3[C@@H]3CCC[C@@]32O1 (single isomer, unassigned) [Compound 74] | 5770 | 8.50 | – | – | –
O=C(NCc1ccc(F)c(Cl)c1F)c1cn2c(c(O)c1=O)C(=O)N1CC=CC[C@]13CCOC[C@H]23 [Compound 14] | – | 8.34 | 8020 | – | –
O=C(NCc1ccc(F)c(Cl)c1F)c1cn2c(c(O)c1=O)C(=O)N1CCCC[C@]13CCOC[C@H]23 [Compound 15] | – | – | – | 7520 | 8.33
O=C(NCc1ccc(F)c(Cl)c1F)c1cn2c(c(O)c1=O)C(=O)N1CC=CC[C@]13COCC[C@H]23 [Compound 25] | – | – | 22100 | – | 8.62
O=C(NCc1ccc(F)c(Cl)c1F)c1cn2c(c(O)c1=O)C(=O)N1CCCC[C@]13COCC[C@H]23 [Compound 26] | – | – | – | 22100 | 8.58
O=C(NCc1c(F)cc(F)cc1F)c1cn2c(c(O)c1=O)C(=O)N1CC=CC[C@]13COCC[C@H]23 [Compound 30] | 33100 | 8.59 | – | – | –
O=C(NCc1c(F)cc(F)cc1F)c1cn2c(c(O)c1=O)C(=O)N1CCCC[C@]13COCC[C@H]23 [Compound 31] | – | 8.71 | 33600 | – | –
O=C(NCc1ccc(F)c(Cl)c1F)c1cn2c(c(O)c1=O)C(=O)N1CC=CC[C@]13COC[C@H]23 [Compound 41] | 9190 | 8.62 | – | – | –
O=C(NCc1ccc(F)c(Cl)c1F)c1cn2c(c(O)c1=O)C(=O)N1CCCC[C@]13COC[C@H]23 [Compound 42] | 7480 | 8.46 | – | – | –
C[C@@H]1CO[C@@]23CCC[C@@H]2n2cc(C(=O)NCc4ccc(F)c(Cl)c4F)c(=O)c(O)c2C(=O)N13 [Compound 65] | 5530 | 8.38 | – | – | –
C[C@@H]1CO[C@@]23CCC[C@@H]2n2cc(C(=O)NCc4c(F)cc(F)cc4F)c(=O)c(O)c2C(=O)N13 [Compound 66] | 6920 | 8.60 | – | – | –
C[C@H]1CO[C@]23CCC[C@H]2n2cc(C(=O)NCc4ccc(F)c(Cl)c4F)c(=O)c(O)c2C(=O)N13 [Compound 69] | 15600 | 8.10 | – | – | –
C[C@H]1CO[C@]23CCC[C@H]2n2cc(C(=O)NCc4c(F)cc(F)cc4F)c(=O)c(O)c2C(=O)N13 [Compound 70] | 16400 | 8.33 | – | – | –
C[C@@H]1CN2C(=O)c3c(O)c(=O)c(C(=O)NCc4ccc(F)c(Cl)c4F)cn3[C@H]3CCC[C@]32O1 [Compound 73] | – | – | – | 3320 | 8.42
C[C@@H]1CCO[C@@]23CCC[C@@H]2n2cc(C(=O)NCc4ccc(F)c(Cl)c4F)c(=O)c(O)c2C(=O)N13 [Compound 77] | 7270 | 8.15 | – | – | –
C[C@H]1CCO[C@]23CCC[C@H]2n2cc(C(=O)NCc4ccc(F)c(Cl)c4F)c(=O)c(O)c2C(=O)N13 [Compound 80] | – | 7.93 | 17500 | – | –
C[C@@H]1CO[C@@]23CCOC[C@@H]2n2cc(C(=O)NCc4ccc(F)c(Cl)c4F)c(=O)c(O)c2C(=O)N13 [Compound 94] | 3990 | – | – | – | 8.73
C[C@@H]1CO[C@@]23CCOC[C@@H]2n2cc(C(=O)NCc4ccc(F)c(Cl)c4F)c(=O)c(O)c2C(=O)N13 [Compound 100] | – | 8.74 | 7530 | – | –
